Data from patent US6579873B2, “3 (5)-heteroaryl substituted pyrazoles as p38 kinase inhibitors” (Pharmacia Corporation, priority 1997, dated 2003).

How the values were obtained:
[1] = target: T1, human p38 kinase alpha (Homo sapiens, UniProt Q16539); assay: p38 kinase in vitro assay, PHAS-I phosphorylation (32P-ATP); format: biochemical; conditions: p38α in vitro results based on PHAS-I assay procedure, read-out: P38α^1
T1 construct: The coding region of the human p38a cDNA was obtained by PCR-amplification from RNA; made in house; host or cells: E. coli DH10B
Protocol: The ability of compounds to inhibit human p38 kinase alpha was evaluated using two in vitro assay methods. In the first method, activated human p38 kinase alpha phosphorylates a biotinylated substrate, PHAS-I (phosphorylated heat and acid stable protein-insulin inducible), in the presence of gamma ^32P-ATP (^32P-ATP). PHAS-I was biotinylated prior to the assay and provides a means of capturing the substrate which is phosphorylated during the assay. p38 Kinase was activated by MKK6. Compounds were tested in 10 fold serial dilutions over the range of 100 μM to 0.001 μM using 1% DMSO. Each concentration of inhibitor was tested in triplicate.
All reactions were carried out in 96 well polypropylene plates. Each reaction well contained 25 mM HEPES pH 7.5, 10 mM magnesium acetate and 50 μM unlabeled ATP. Activation of p38 was required to achieve sufficient signal in the assay. Biotinylated PHAS-I was used at 1-2 μg per 50 μl reaction volume, with a final concentration of 1.5 μM. Activated human p38 kinase alpha was used at 1 μg per 50 μl reaction volume representing a final concentration of 0.3 μM. Gamma ^32P-ATP was used to follow the phosphorylation of PHAS-I. ^32P-ATP has a specific activity of 3000 Ci/mmol and was used at 1.2 μCi per 50 μl reaction volume. The reaction Proceeded either for one hour or overnight at 30° C.
Following incubation, 20 μl of reaction mixture was transferred to a high capacity streptavidin coated filter plate (SAM-streptavidin-matrix, Promega) prewetted with phosphate buffered saline. The transferred reaction mix was allowed to contact the streptavidin membrane of the Promega plate for 1-2 minutes. Following capture of biotinylated PHAS-I with ^32P incorporated, each well was washed to remove unincorporated ^32P-ATP three times with 2M NaCl, three washes of 2M NaCl with 1% phosphoric, three washes of distilled water and finally a single wash of 95% ethanol. Filter plates were air dried and 20 μl of scintillant was added. The plates were sealed and counted.

[2] = target: T1, human p38 kinase alpha; assay: p38 kinase in vitro assay, EGFRP phosphorylation (33P-ATP); format: biochemical; conditions: p38α in vitro results based on EGFRP assay procedure, read-out: p38α^2
Protocol: A second assay format was also employed that is based on p38 kinase alpha induced phosphorylation of EGFRP (epidermal growth factor receptor peptide, a 21 mer) in the presence of ^33P-ATP. Compounds were tested in 10 fold serial dilutions over the range of 100 μM to 0.001 μM in 1% DMSO. Each concentration of inhibitor was tested in triplicate. Compounds were evaluated in 50 μl reaction volumes in the presence of 25 mM Hepes pH 7.5, 10 mM magnesium acetate, 4% glycerol, 0.4% bovine serum albumin, 0.4 mM DTT, 50 μM unlabeled ATP, 25 μg EGFRP (200 μM), and 0.05 uCi gamma ^33P-ATP. Reactions were initiated by addition of 0.09 μg of activated, purified human GST-p38 kinase alpha. Activation was carried out using GST-MKK6 (5:1,p38:MKK6) for one hour at 30° C. in the presence of 50 μM ATP. Following incubation for 60 minutes at room temperature, the reaction was stopped by addition of 150 μl of AG 1×8 resin in 900 mM sodium formate buffer, pH 3.0 (1 volume resin to 2 volumes buffer). The mixture was mixed three times with pipetting and the resin was allowed to settle. A total of 50 μl of clarified solution head volume was transferred from the reaction wells to Microlite-2 plates. 150 μl of Microscint 40 was then added to each well of the Microlite plate, and the plate was sealed, mixed, and counted.

[3] = test system: TNF production by U937 cells; assay: LPS stimulation of TNF production by U937 cells; format: cell-based; conditions: Homo sapiens, U-937, LPS-stimulated TNF-α release, differentiated U937 cells, 4 hour incubation
Protocol: U937 cells (ATCC) were propagated in RPMI 1640 containing 10% Fetal bovine serum, 100 IU/ml penicillin, 100 μg/ml streptomycin, and 2 mM glutamine (Gibco). Fifty million cells in 100 ml media were induced to terminal monocytic differentiation by 24 hour incubation with 20 ng/ml phorbol 12-myristate 13-acetate (Sigma). The cells were washed by centrifugation (200×g for 5 min) and resuspended in 100 ml fresh medium. After 24-48 hours, the cells were harvested, centrifuged, and resuspended in culture medium at 2 million cells/ml.
U937 cells (0.1 ml, 2 million/ml) were incubated with 0.1 ml compound (0.004-50 μM, final concentration) for 1 hour in 96 well microtiter plates. Compounds were prepared as 10 mM stock solutions in DMSO and diluted in culture medium to yield a final DMSO concentration of 0.1% in the cell assay. LPS (E. coli, 100 ng/ml final concentration) was then added at a volume of 0.02 ml. After 4 hour incubation at 37° C., the amount of TNF-α released in the culture medium was quantitated by ELISA. Inhibitory potency is expressed as IC50 (μM).

[4] = test system: serum TNF; assay: Mouse model of LPS-induced TNF alpha production; format: in vivo, BALB/c female mice; conditions: percent inhibition of serum TNF, oral gavage 6 hours prior to LPS injection, mice
Protocol: TNF alpha was induced in 10-12 week old BALB/c female mice by tail vein injection with 100 ng lipopolysaccharide (from S. Typhosa) in 0.2 ml saline. One hour later mice were bled from the retroorbital sinus and TNF concentrations in serum from clotted blood were quantified by ELISA. Typically, peak levels of serum TNF ranged from 2-6 ng/ml one hour after LPS injection.
The compounds tested were administered to fasted mice by oral gavage as a suspension in 0.2 ml of 0.5% methylcellulose and 0.025% Tween 20 in water at 1 hour or 6 hours prior to LPS injection. The 1 hour protocol allowed evaluation of compound potency at Cmax plasma levels whereas the 6 hour protocol allowed estimation of compound duration of action. Efficacy was determined at each time point as percent inhibition of serum TNF levels relative to LPS injected mice that received vehicle only.

T1 sequence (Q16539 whole entry): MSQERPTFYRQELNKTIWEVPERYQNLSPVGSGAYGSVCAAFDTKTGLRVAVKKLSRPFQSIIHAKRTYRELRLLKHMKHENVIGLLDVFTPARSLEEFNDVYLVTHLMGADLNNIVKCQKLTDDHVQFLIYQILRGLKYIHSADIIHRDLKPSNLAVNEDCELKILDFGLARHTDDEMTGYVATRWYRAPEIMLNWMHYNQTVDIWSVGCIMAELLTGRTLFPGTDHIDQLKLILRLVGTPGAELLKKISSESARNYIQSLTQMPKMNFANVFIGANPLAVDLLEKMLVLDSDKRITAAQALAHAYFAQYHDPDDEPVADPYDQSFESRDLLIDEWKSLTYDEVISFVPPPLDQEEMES

| IC50 [1] [µM] | IC50 [2] [µM] | IC50 [3] [µM] | melting point [°C] | Molecule | mLPS (6 h @ (30 mpk)) [4] [%] |
| --- | --- | --- | --- | --- | --- |
| – | 6.21 | 10.6 | 178 to 180 | Nc1n[nH]c(-c2ccncc2)c1-c1ccc(F)cc1 [Example 2, 4-(4-fluorophenyl)-5-(4-pyridinyl)-1H-pyrazol-3-amine] | – |
| 1.98 | – | 5.53 | – | NC(=O)Nc1n[nH]c(-c2ccncc2)c1-c1ccc(F)cc1 [Example 5, [4-(4-fluorophenyl)-5-(4-pyridinyl)-1H-pyrazol-3-yl]urea] | – |
| – | – | ≥ 10 | 212 to 213 | CNC(=O)Nc1n[nH]c(-c2ccncc2)c1-c1ccc(F)cc1 [Example 8, N-[4-(4-fluorophenyl)-5-(4-pyridinyl)-1H-pyrazol-3-yl]-N′-methylurea] | – |
| 2.44 | 3.46 | 0.647 | – | Fc1ccc(-c2cn[nH]c2-c2ccncc2)cc1 [Example 9, 4-[4-(4-fluorophenyl)-1H-pyrazol-3-yl]pyridine] | 42 |
| 7.23 | 0.4 | 1.6 | – | Cn1cc(-c2ccc(F)cc2)c(-c2ccncc2)n1 [Example 10, 4-[4-(4-fluorophenyl)-1-methyl-1H-pyrazol-3-yl]pyridine] | 76 |
| 5.9 | 0.75 | – | – | Clc1ccc(-c2c[nH]nc2-c2ccncc2)cc1 [Example 15, 4-[4-(4-chlorcophenyl)-1H-pyrazol-3-yl]pyridine] | 32 |

More lines, now with the values behind:

| Molecule | IC50 [1] [µM] | IC50 [2] [µM] | IC50 [3] [µM] | melting point [°C] | mLPS (6 h @ (30 mpk)) [4] [%] |
| --- | --- | --- | --- | --- | --- |
| 4-(4-fluorophenyl)-3-(4-pyridinyl)-1H-pyrazole-1-ethanol and 4-(4-fluorophenyl)-5-(4-pyridinyl)-1H-pyrazole-1-ethanol [Example 11] | 0.695 | – | – | – | – |
| 4-(4-fluorophenyl)-N,N-dimethyl-3-(4-pyridinyl)-1H-pyrazole-1-ethanamine and 4-(4fluorophenyl)-N,N-dimethyl-5-(4-pyridinyl)-1H-pyrazole-1-ethanamine [Example 12] | 0.941 | – | – | – | – |
| 4-[2-[4-(4-fluorophenyl)-3-(4-pyridinyl)-1H-pyrazol-1-yl]ethyl]morpholine and 4-[2-[4-(4-fluorophenyl)-5-(4-pyridinyl)-1H-pyrazol-1-yl]ethyl]morpholine [Example 13] | 0.86 | – | – | – | – |
| Cc1n[nH]c(-c2ccncc2)c1-c1ccccc1 [Example 1, 4-(3-methyl-4-phenyl-1H-pyrazol-5-yl)pyridine] | 30 | 13.3 | ≥ 10 | 164 to 165 | – |
| CS(=O)(=O)Nc1n[nH]c(-c2ccncc2)c1-c1ccc(F)cc1 [Example 3, N-[4 (4-fluorophenyl)-5-(4-pyridinyl)-1H-pyrazol-3-yl]methanesulfonamide] | – | 2.55 | > 10 | 168 to 170 | – |
| CNS(=O)(=O)Nc1n[nH]c(-c2ccncc2)c1-c1ccc(F)cc1 [Example 4, N-[4-(4-fluorophenyl)-5-(4-pyridinyl)-1H-pyrazol-3-yl]-N′-methylsulfamide] | – | 0.23 | 4.7 | 194 to 195 | 54 |
| Cn1nc(-c2ccncc2)c(-c2ccc(Cl)cc2)c1N [Example 7, 4-(4-chlorophenyl)-1-methyl-3-(4-pyridinyl)-1H-pyrazol-5-amine] | – | 5.48 | ≥ 10 | 257 to 258 | – |
